# Measurements published in patent publication US5972598A, “Methods for preventing multidrug resistance in cancer cells” (priority 1995, dated 1999).
# Entries after “also recorded” stand apart in the source; their conditions may differ. Where two headings read alike, the source gives them in different places.
# What was measured:
# MDR1 [1] = type: cell-based, human
# Protocol: The times of drug exposure are indicated.
# (§1) (Commercially-available kits (for example, from GIBCO/BRL, Gaithersburg, Md.) can be advantageously modified for making cDNA using random hexamers.) PCR is then performed using the following primers: […]
# Next, it was tested whether drug-induced MDR1 expression was maintained after the cytotoxic treatment. […] At different time points, MDR1 expression in the surviving cells was analyzed by dye efflux and immunofluorescence labeling with UIC2 (FIG. 3c) or by cDNA-PCR (FIG. 4e).
# P-glycoprotein [2] = target: T1, P-glycoprotein (Homo sapiens, UniProt P08183); test: Dye efflux (Rh123 or DiOC2 (3)) assay of drug-treated K562 cells
# T1 sequence (P08183 whole entry): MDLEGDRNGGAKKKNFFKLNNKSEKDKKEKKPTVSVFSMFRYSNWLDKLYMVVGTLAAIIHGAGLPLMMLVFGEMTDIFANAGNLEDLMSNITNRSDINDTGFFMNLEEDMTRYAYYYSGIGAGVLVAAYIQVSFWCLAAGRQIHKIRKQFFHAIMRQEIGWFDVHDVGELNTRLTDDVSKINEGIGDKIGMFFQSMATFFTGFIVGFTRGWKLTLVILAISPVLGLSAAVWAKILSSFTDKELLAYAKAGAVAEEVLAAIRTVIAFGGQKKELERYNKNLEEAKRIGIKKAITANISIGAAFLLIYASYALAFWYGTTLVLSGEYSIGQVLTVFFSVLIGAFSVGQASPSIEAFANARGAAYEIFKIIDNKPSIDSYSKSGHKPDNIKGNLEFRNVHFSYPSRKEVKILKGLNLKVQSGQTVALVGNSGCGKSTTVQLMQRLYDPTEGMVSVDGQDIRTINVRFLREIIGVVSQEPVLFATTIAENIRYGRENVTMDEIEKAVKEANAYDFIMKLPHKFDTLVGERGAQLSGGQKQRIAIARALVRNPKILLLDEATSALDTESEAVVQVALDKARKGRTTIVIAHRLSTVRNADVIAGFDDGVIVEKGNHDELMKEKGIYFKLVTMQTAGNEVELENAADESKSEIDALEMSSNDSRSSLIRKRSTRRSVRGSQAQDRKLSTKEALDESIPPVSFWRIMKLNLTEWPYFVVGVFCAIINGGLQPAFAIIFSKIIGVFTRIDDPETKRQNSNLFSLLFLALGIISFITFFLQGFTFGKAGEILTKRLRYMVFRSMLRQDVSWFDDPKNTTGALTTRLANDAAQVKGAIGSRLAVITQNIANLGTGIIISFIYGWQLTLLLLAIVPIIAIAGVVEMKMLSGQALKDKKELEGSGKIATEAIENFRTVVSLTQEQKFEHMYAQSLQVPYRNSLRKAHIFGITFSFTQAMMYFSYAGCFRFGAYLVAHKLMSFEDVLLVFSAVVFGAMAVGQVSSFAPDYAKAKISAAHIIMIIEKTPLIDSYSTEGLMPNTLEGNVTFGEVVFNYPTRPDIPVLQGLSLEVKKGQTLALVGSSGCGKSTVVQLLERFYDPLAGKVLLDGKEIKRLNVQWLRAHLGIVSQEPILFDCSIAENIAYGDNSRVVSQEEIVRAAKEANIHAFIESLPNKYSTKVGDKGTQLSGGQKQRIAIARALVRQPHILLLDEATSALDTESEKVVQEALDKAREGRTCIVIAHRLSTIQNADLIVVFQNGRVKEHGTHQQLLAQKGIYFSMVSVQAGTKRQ
# Protocol: (§4) Top panel: Rh123 efflux from untreated cells (-) and from cells treated with 50 μM Ara-C (ARA) for 12 hours or with 10 μAra-C for 2 to 3 days.
# MRP = test: Inhibition of MRP expression in H-9 cells; type: cell-based, human; parameters: Inhibition of MRP Expression: key to the marks not given beside the values
# Protocol: PCR was performed using the following primers: […]
# (where β2 M represents β2 microglobulin). PCR was performed for β2 M experiments under a regime consisting of 1 cycle comprising denaturation at 94° C. for 3 minutes, primer annealing at 60° C. for 30 seconds, and primer extension at 72° C. for 1 minute, followed by 19 cycles comprising denaturation at 94° C. for 30 seconds, primer annealing at 60° C. for 30 seconds, and primer extension at 72° C. for 1 minute, followed by a final cycle comprising denaturation at 94° C. for 30 seconds, primer annealing at 60° C. for 30 seconds, and primer extension at 72° C. for 5 minutes.
# [3] = clinical trials; cited from earlier work
# MDR1 [4] = test: Inhibition of cytotoxic drug (Ara-C) induced MDR1 expression by protein kinase inhibitors; type: cell-based, human
# Protocol: FIG. 5. Effect of protein kinase inhibitors on MDR1 mRNA induction by cytotoxic drugs in H9 cells. […]
# as §1
# (where β2 M represents β2 microglobulin). PCR was performed for β2 M experiments under a regime consisting of 1 cycle comprising denaturation at 94° C. for 3 minutes, primer annealing at 60° C. for 30 seconds, and primer extension at 72° C. for 1 minute, followed by 19 cycles comprising denaturation at 94° C. for 30 seconds, primer annealing at 60° C. for 30 seconds, and primer extension at 72° C. for 1 minute, followed by a final cycle comprising denaturation at 94° C. for 30 seconds, primer annealing at 60° C. for 30 seconds, and primer extension at 72° C. for 5 minutes. MDR1 cDNA sequences were amplified using the identical protocol as for β2 M, but extending the amplification from 19 cycles to 25 cycles. In addition, the cDNA-PCR amplification protocol contained the following modifications: (i) Taq DNA polymerase was added to the PCR mixtures after initial heating of the samples to 94° C. (ii) The yield of the β2 -microglobulin-specific band, obtained after 22-28 cycles of PCR, was used as the primary criterion for equalizing the starting amounts of the cDNA templates in different preparations, in order to account for differential RNA degradation in cells subjected to different types of treatment. […] PCR products were detected by autoradiography.
# (§2) Cells were plated in 6-well Falcon tissue culture plates at 3,300 cells per well, and incubated in the appropriate concentrations of drugs. Each of the protein kinase inhibitors to be tested were added at their appropriate final concentrations 45 minutes prior to MDR1 induction by the addition of Ara-C or TPA, with the exception of herbimycin A, which was added 12 hours prior to Ara-C or TPA, and tyrphostins A25 and B46, which were each added 16 hours prior to MDR1 induction by the addition of Ara-C or TPA. Cells were incubated overnight (TPA) or for 10 hours (Ara-C) at 37° C. under an atmosphere of 5% CO2 after the addition of the MDR1 inducing agents before harvesting for cDNA-PCR analysis.
# In addition to these conditions, the analysis of certain drugs imposed added requirements. For experiments using calphostin C, cells were incubated under direct white light illumination. For experiments using D,L-threo-sphingosine, the cell culture medium was pre-treated with the appropriate concentration of the drug for one hour at 37° C. with continuous gentle mixing. After this pre-treatment, cells were resuspended in media supplemented with drug and incubated for 45 minutes as described above.
# (§3) cDNA-PCR analyses on each culture treated with drugs, or in control cultures incubated in the absence or presence of Ara-C or TPA alone, were performed as described in Section 6.1.3 above.
# To further evaluate the capacity of protein kinase inhibitors to suppress MDR1 induction by cytotoxic drugs and PKC agonists, H-9 human T cell leukemia cells were used in cDNA-PCR assays to examine induced MDR1 mRNA expression levels in the presence of such protein kinase inhibitors.
# protein kinase A = details: Hidaka et al., 1984; cited from earlier work
# PKC = details: cited from earlier work; for IC50: Hidaka et al., 1984
# MDR1 [5] = details: cited from earlier work
# P-glycoprotein [6] = target: T1, P-glycoprotein
# Protocol: as §4
# MDR1 [7] = test: Inhibition of PKC agonist (TPA or DOG) induced MDR1 expression; type: cell-based, human; details: for inhibition of TPA-induced MDR1 expression: H-9 cells, TPA 10 ng/ml overnight
# Protocol: as §1
# as §2, with “Each of the protein kinase inhibitors to be tested were added at their appropriate final concentrations 45 minutes prior to MDR1 induction by the addition of Ara-C” left out
# as §3
# tumor = details: nude mice, cited from earlier work
# P-glycoprotein [8] = system: P-glycoprotein
# Protocol: Mouse IgG2a isotype control antibody was obtained from Sigma. For staining of PBL with UIC2 mAB or isotype control, 10^6 cells were stained at 4° C. with 10 μg of the antibody for 30 minutes and, after two washes, stained for 30 minutes with 10 μg of FITC-conjugated goat anti-mouse IgG2a antibody (Fisher Scientific, Fairlawn, N.J.), diluted 1:2 with PBS plus 2% FCS. Cells were then washed twice with ice-cold PBS plus 2% FCS, stained with PI and kept on ice until analysis. Essentially the same protocol was used for staining of other cell types except that 2 μg of the secondary antibody were used per 10^6 cells. In some experiments, phycoerythrine (PE)-conjugated goat anti-mouse IgG2a was used as the secondary antibody; no PI was added in such cases.
# [9] = K562 cells treated 3-5 days, then grown in absence of drug
# [10] = KB-3-1 epidermoid carcinoma, 2 days
# [11] = human leukemia and solid-tumor derived cell lines, subpopulation of treated cells
smiles,measurement,setting,value
COc1cccc2c1C(=O)c1c(O)c3c(c(O)c1C2=O)C[C@@](O)(C(=O)CO)C[C@@H]3O[C@H]1C[C@H](N)[C@H](O)[C@H](C)O1 [Adriamycin],MDR1 mRNA expression,MDR1 [1]; H9 T-cell leukemia,MDR1 mRNA expression was induced
same,MDR1 mRNA induction,MDR1 [1]; K562 cells,induce MDR1 mRNA expression
same,maintenance of MDR1 expression after removal of the drug,MDR1 [1]; [9],least several weeks
same,MDR1 mRNA expression,MDR1 [1]; [10],MDR1 mRNA expression was induced
same,"MDR1 induction, mRNA and protein levels",MDR1 [1]; [11],"MDR1 induction, both at the mRNA and at the protein levels, was observed"
same,treated cells showing efflux of Rh123 or DiOC2 (3),P-glycoprotein [2],3-10%
"Nc1ccn([C@@H]2O[C@H](CO)[C@@H](O)[C@@H]2O)c(=O)n1 [Ara-C, 1-β-D-arabinofuranosylcytosine]",maintenance of MDR1 expression after removal of the drug,MDR1 [1]; Ara-C treated K562 population,up to 11 weeks
same,MDR1 mRNA expression,"MDR1 [1]; EJ bladder carcinoma, 10 μM, 4 days",activated MDR1 mRNA expression
same,MDR1 mRNA expression,MDR1 [1]; H9 T-cell leukemia,activated MDR1 mRNA expression
same,maintenance of MDR1 expression after removal of the drug,MDR1 [1]; [9],least several weeks
same,MDR1 mRNA expression relative to β2 -glycoprotein,"MDR1 [1]; K562 cells, Ara-C",dose-dependent increase in MDR1 mRNA expression
same,MDR1 mRNA expression,MDR1 [1]; [10],activated MDR1 mRNA expression
same,P-glycoprotein expression (Rh123 accumulation or UIC2 immunoreactivity),"MDR1 [1]; KG1 leukemia cells, Ara-C (10 μM, 1.5 days)",increased P-glycoprotein expression
same,"MDR1 induction, mRNA and protein levels",MDR1 [1]; [11],"MDR1 induction, both at the mRNA and at the protein levels, was observed"
same,subpopulation of live cells showing efflux of Rh123,P-glycoprotein [2]; Ara-C 12-72 hours,3-17%
same,effect on MRP expression,"MRP; 25 μM Ara-C, data not shown",slight decrease in MRP expression
CCCCCCCCCCCCCCCCSCC(COC)COP(=O)([O-])OCC[N+](C)(C)C (stereo not drawn) [BM41440],"MTD, oral",[3],5 mg/kg body weight
CC1CNCCN1S(=O)(=O)c1cccc2cnccc12 (stereo not drawn) [H7],prevention of MDR1 induction by chemotherapeutic drugs,MDR1 [4]; 50 μM,prevent MDR1 induction
same,IC50,protein kinase A,3 µM
same,IC50,PKC,6 µM
N=C(N)NCCNS(=O)(=O)c1cccc2cnccc12 [HA1004],inhibition of MDR1 induction by Ara-C,"MDR1 [4]; H9 cells, 60 μM HA1004, 50 μM Ara-C 22 hr",no significant inhibition
same,prevention of MDR1 induction,MDR1 [4]; protein kinase inhibitor inactive against PKC,totally ineffective in preventing MDR1 induction
same,IC50,protein kinase A,2.3 µM
same,IC50,PKC,40 µM
O=[As][O-].[Na+] [arsenite],MDR1 expression,MDR1 [5],increased
COc1cccc2c1C(=O)c1c(O)c3c(c(O)c1C2=O)C[C@@](O)(C(C)=O)C[C@@H]3O[C@H]1C[C@H](N)[C@H](O)[C@H](C)O1 [daunorubicin],"MDR1 induction, mRNA and protein levels",MDR1 [1],"MDR1 induction, both at the mRNA and at the protein levels, was observed"
same,MDR1 mRNA induction,MDR1 [1],induce MDR1 mRNA expression
same,treated cells showing efflux of Rh123 or DiOC2 (3),P-glycoprotein [6],3-10%
NC(=O)NO [hydroxyurea],"MDR1 induction, mRNA and protein levels",MDR1 [1],"MDR1 induction, both at the mRNA and at the protein levels, was observed"
same,MDR1 mRNA induction,MDR1 [1],induce MDR1 mRNA expression
same,treated cells showing efflux of Rh123 or DiOC2 (3),P-glycoprotein [2],3-10%
CCCCCCCCCCCCCCCCSCC(COC)COP(=O)([O-])OCC[N+](C)(C)C (stereo not drawn) [ilmofosine],"MTD, oral",[3],200 mg/day
"COC(=O)C=Cc1cc(O)ccc1O [methyl-2,5-dihydroxycinnamate]",inhibition of Ara-C induced MDR1 expression,"MDR1 [4]; H9 cells, 25 μM Ara-C 10 h, 32 μM",++++
same,inhibition of Ara-C induced MDR1 expression,"MDR1 [4]; H-9 cells, 32 μM",completely inhibit Ara-C induced MDR1 expression
same,inhibition of Ara-C induced MDR1 expression,"MDR1 [4]; H-9 cells, 32 μM and 64 μM",inhibits MDR1 expression at both 32 μM and 64 μM to essentially the same degree
same,inhibition of TPA-induced MDR1 expression,MDR1 [7]; 32 μM,completely inhibited TPA-induced MDR1 expression
same,Inhibition of MRP Expression,MRP; 32 μM,++++
same,inhibition of MRP expression,MRP; 32 μM,strongly inhibited; also recorded: capable of inhibiting MRP expression
O=c1c(O)c(-c2ccc(O)c(O)c2)oc2cc(O)cc(O)c12 [quercetin],effect on arsenite-induced increase in MDR1 expression,MDR1 [5],can prevent an increase in MDR1 expression
same,potentiation of anti-tumor effect of cisplatin,tumor; i.p. 20 mg/kg,potentiate the anti-tumor effect of cisplatin
same,inhibition of protein kinase C,PKC; literature,inhibition of PKC activity
CN[C@@H]1C[C@H]2O[C@@](C)([C@@H]1OC)n1c3ccccc3c3c4c(c5c6ccccc6n2c5c31)C(=O)NC4 [staurosporine],"prevention of MDR1 induction by TPA, diacylglycerol, Ara-C, vinblastine, methotrexate and Adriamycin","MDR1 [4]; P-glycoprotein-negative cells, 30 nM",prevent MDR1 induction
same,inhibition of DOG-induced MDR1 induction,"MDR1 [7]; H9 cells, staurosporine 30 nM, 30 minutes prior to DOG",completely abolished MDR1 induction
same,inhibition of TPA-induced MDR1 induction,"MDR1 [7]; H9 cells, staurosporine 30 nM, 30 minutes prior to TPA",completely abolished MDR1 induction
same,inhibition of TPA-induced MDR1 expression,MDR1 [7]; 30 nM,completely inhibited TPA-induced MDR1 expression
same,anti-tumor effect at fraction of MTD,"tumor; Meyer et al., 1989",1/10
same,maximum tolerated dose (MTD),"tumor; Meyer et al., 1989",1 mg/kg
same,"P-glycoprotein expression, inhibitor alone","P-glycoprotein [8]; KG1a cells, staurosporine 100 nM",significant increase in P-glycoprotein expression
same,"P-glycoprotein expression, inhibitor alone",P-glycoprotein [8]; KG1 cells,significant increase in P-glycoprotein expression
same,"MDR1 expression, inhibitor alone","P-glycoprotein [8]; P-glycoprotein-negative H9 cells, 30 nM",did not induce MDR1 expression
CC[C@]1(O)C[C@@H]2CN(CCc3c([nH]c4ccccc34)[C@@](C(=O)OC)(c3cc4c(cc3OC)N(C)[C@H]3[C@@](O)(C(=O)OC)[C@H](OC(C)=O)[C@]5(CC)C=CCN6CC[C@]43[C@@H]65)C2)C1 [vinblastine],"MDR1 induction, mRNA and protein levels",MDR1 [1],"MDR1 induction, both at the mRNA and at the protein levels, was observed"
same,MDR1 mRNA expression,MDR1 [1],MDR1 mRNA expression was induced
same,MDR1 mRNA induction,MDR1 [1],induce MDR1 mRNA expression
same,treated cells showing efflux of Rh123 or DiOC2 (3),P-glycoprotein [6],3-10%
